Assay results taken from the supplement of paper PMC10331698.
± gives the standard deviation of the averaged measurements.

Experiments:
Test in all cases: LOEC (log10 uM (lowest observed effect concentration))
[1] = compound: O=S(=O)(Cl)C(F)(F)C(F)(F)C(F)(F)C(F)(F)C(F)(F)C(F)(F)C(F)(F)C(F)(F)F [Perfluoro-1-octanesulfonyl chloride]
Protocol: (§1)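 BioMAP Diversity Plus panel in human primary cell co-cultures, 4 concentrations in duplicate blinded samples. Responses are log10 fold change versus DMSO control, processed with tcpl v2.1.0. A hit is called when responses at any concentration exceed the cutoff (the larger of 3*bmad or log10(1.2)); the lowest observed effect concentration (modl_ga, log10 uM) is reported for hits.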

[2] = compound: C=CC(=O)OCC(F)(F)C(F)(F)C(F)(F)COC(=O)C=C [1H,1H,5H,5H-Perfluoro-1,5-pentanediol diacrylate]
Protocol: as §1

[3] = compound: NS(=O)(=O)C(F)(F)C(F)(F)C(F)(F)C(F)(F)C(F)(F)C(F)(F)F [Perfluorohexanesulfonamide]
Protocol: as §1

[4] = compound: O=C(O)C(F)(F)C(F)(F)C(F)(F)C(F)(F)C(F)(F)C(F)(F)C(F)(F)C(F)(F)C(F)(F)C(F)F [11-H-Perfluoroundecanoic acid]
Protocol: as §1

[5] = compound: COC(=O)C(F)(F)C(F)(F)OC(F)(C(F)(F)F)C(F)(F)OC(F)=C(F)F [Methyl perfluoro(3-(1-ethenyloxypropan-2-yloxy)propanoate)]
Protocol: as §1

Test System	LOEC (log10 uM) [1]	LOEC (log10 uM) [2]	LOEC (log10 uM) [3]	LOEC (log10 uM) [4]	LOEC (log10 uM) [5]
3C Eselectin up	1.78	–	–	–	–
3C HLADR down	–	1.07 ± 0.32	1.78	–	–
3C IL8 up	1.78	–	–	–	–
3C Proliferation down	–	0.301	1.78	1.78	–
3C SRB down	1.78	1.3	1.78	1.78	–
3C Thrombomodulin up	1.78	1.3	–	1.78	–
3C uPAR down	1.78	1.78	–	–	–
4H Eotaxin3 down	–	0.845	1.78	1.78	–
4H SRB down	–	1.3	1.78	1.78	–
BE3C EGFR down	1.78	–	–	1.3	–
BE3C HLADR down	1.78	1.3	–	1.3	–
BE3C ICAM1 down	1.78	1.3	–	1.3	–
BE3C IL1a down	1.78	1.3	–	1.3	–
BE3C IL8 down	1.78	1.3	1.3	–	–
BE3C IP10 down	1.3	1.54 ± 0.34	1.54 ± 0.34	0.845	–
BE3C ITAC down	1.78	1.78	–	1.3	0.845
BE3C MIG down	1.78	1.78	–	1.3	–
BE3C MMP1 up	–	–	1.78	–	0.573 ± 0.39
BE3C MMP9 down	1.78	1.3	1.78	1.07 ± 0.32	–
BE3C PAI1 down	1.78	–	1.54 ± 0.34	1.3	–
BE3C SRB down	1.78	–	–	1.3	–
BE3C uPA down	1.78	1.78	–	1.3	–
BE3C uPAR down	1.78	1.78	1.78	1.3	–
BF4T Eotaxin3 down	1.78	1.78	–	0.801 ± 0.71	–
BF4T ICAM1 down	1.78	1.07 ± 0.32	–	1.3	–

Test System	LOEC (log10 uM) [1]	LOEC (log10 uM) [2]	LOEC (log10 uM) [3]	LOEC (log10 uM) [4]	LOEC (log10 uM) [5]
BF4T IL1a down	1.78	1.78	–	1.54 ± 0.34	–
BF4T MCP1 down	1.78	1.3	1.78	0.573 ± 0.39	–
BF4T MMP3 up	–	–	–	–	0.845
BF4T MMP9 down	1.78	1.3	–	1.3	–
BF4T PAI1 down	1.78	1.3	–	0.801 ± 0.71	–
BF4T SRB down	1.78	1.78	–	1.3	–
BF4T VCAM1 down	–	1.3	1.54 ± 0.34	–	–
BF4T tPA down	1.54 ± 0.34	1.3	–	0.845	–
BF4T uPA down	1.78	1.78	–	1.78	–
BT Bcell Proliferation up	1.78	–	–	–	–
BT PBMCCytotoxicity up	1.78	–	–	1.78	–
IMphg CD40 down	–	1.3	1.78	–	–
IMphg CD69 down	–	1.78	1.78	–	–
IMphg ESelectin down	–	1.3	1.78	–	–
IMphg IL1a up	–	–	1.54 ± 0.34	–	0.845
IMphg IL8 up	–	–	1.78	–	0.301
IMphg IL10 down	1.78	1.3	1.78	1.78	–
IMphg MCP1 down	–	1.3	1.78	1.78	–
IMphg MCSF down	–	–	1.07 ± 0.32	–	–
KF3CT IP10 down	1.78	1.3	1.78	1.3	–
KF3CT MMP9 down	1.78	1.3	–	1.3	–
KF3CT PAI1 down	1.3	1.3	–	1.3	–
LPS CD40 down	–	0.845	1.78	1.78	–
LPS CD69 down	–	1.3	1.78	1.78	–
LPS PGE2 down	1.78	1.3	–	1.78	–

Test System	LOEC (log10 uM) [1]	LOEC (log10 uM) [2]	LOEC (log10 uM) [3]	LOEC (log10 uM) [4]	LOEC (log10 uM) [5]
LPS PGE2 up	–	–	1.54 ± 0.34	–	–
LPS VCAM1 down	–	1.07 ± 0.32	1.78	1.78	–
MyoF PAI1 down	–	1.3	–	1.78	–
SAg CD38 down	–	1.07 ± 0.32	–	1.78	–
SAg CD40 down	–	0.845	1.78	1.78	–
SAg CD69 down	–	0.845	1.78	1.78	–
SAg Eselectin down	–	0.845	1.78	1.78	–
SAg Eselectin up	1.78	–	–	–	–
SAg IL8 down	–	0.845	1.78	1.78	–
SAg MCP1 down	–	0.845	–	1.78	–
SAg PBMCCytotoxicity up	–	–	1.78	–	–
SAg Proliferation down	–	0.301	–	1.78	–
SAg SRB down	1.78	1.3	–	1.78	–
hDFCGF CollagenIII down	–	0.573 ± 0.39	–	0.845	–
hDFCGF IP10 down	–	0.301	1.54 ± 0.34	0.573 ± 0.39	0.845
hDFCGF ITAC down	–	0.301	1.78	0.573 ± 0.39	0.845
hDFCGF MCP1 down	–	0.301	–	1.78	–
hDFCGF MCP1 up	–	–	1.78	–	–
hDFCGF MCSF down	–	0.301	–	1.54 ± 0.34	–
hDFCGF MIG down	–	0.301	–	0.573 ± 0.39	–
hDFCGF PAI1 down	–	0.845	–	1.78	–
hDFCGF Proliferation down	–	0.301	1.78	0.845	–
hDFCGF SRB up	–	–	–	–	0.301
hDFCGF TIMP2 down	–	–	1.78	–	–
hDFCGF VCAM1 down	–	0.301	–	0.801 ± 0.71	0.845
